Measurements from patent US10501425B2, “Microbiocidal oxadiazole derivatives” (SYNGENTA PARTICIPATIONS AG, priority 2015, dated 2019).

Experiments:
[1] = tested on: Puccinia recondita f. Sp. Tritici; assay: Puccinia recondita f. sp. tritici / wheat / leaf disc preventative (brown rust); assay type: in vivo; conditions: foliar, 200 ppm in the applied formulation, wheat leaf segments cv. Kanzler, preventative (inoculated 1 day after application), compared to untreated, read-out: disease control
Experimental: Leaf disks or leaf segments of various plant species are cut from plants grown in a greenhouse. The cut leaf disks or segments are placed in multiwell plates (24-well format) onto water agar. The leaf disks are sprayed with a test solution before (preventative) or after (curative) inoculation. Compounds to be tested are prepared as DMSO solutions (max. 10 mg/ml) which are diluted to the appropriate concentration with 0.025% Tween20 just before spraying. The inoculated leaf disks or segments are incubated under defined conditions (temperature, relative humidity, light, etc.) according to the respective test system. A single evaluation of disease level is carried out 3 to 14 days after inoculation, depending on the pathosystem. Percent disease control relative to the untreated check leaf disks or segments is then calculated. Wheat leaf segments cv. Kanzler were placed on agar in multiwell plates (24-well format) and sprayed with the formulated test compound diluted in water. The leaf disks were inoculated with a spore suspension of the fungus 1 day after application. The inoculated leaf segments were incubated at 19° C. and 75% relative humidity (rh) under a light regime of 12 hours light/12 hours darkness in a climate cabinet and the activity of a compound was assessed as percent disease control compared to untreated when an appropriate level of disease damage appears in untreated check leaf segments (7 to 9 days after application). The following compounds at 200 ppm in the applied formulation give at least 80% disease control in this test when compared to untreated control leaf disks under the same conditions, which show extensive disease development.

[2] = tested on: Glomerella lacenarium (Colletotrichum lagenarium); assay: Glomerella lagenarium liquid culture / cucumber / preventative (anthracnose); assay type: cell-based; conditions: Colletotrichum orbiculare; 20 ppm in the applied formulation; liquid culture (PDB), growth inhibition measured photometrically 3 to 4 days after application; compared to untreated; read-out: disease control
Experimental: Mycelia fragments or conidia suspensions of a fungus prepared either freshly from liquid cultures of the fungus or from cryogenic storage, are directly mixed into nutrient broth. DMSO solutions of the test compound (max. 10 mg/ml) are diluted with 0.025% Tween20 by a factor of 50 and 10 μl of this solution is pipetted into a microtiter plate (96-well format). The nutrient broth containing the fungal spores/mycelia fragments is then added to give an end concentration of the tested compound. The test plates are incubated in the dark at 24° C. and 96% relative humidity. The inhibition of fungal growth is determined photometrically after 2 to 7 days, depending on the pathosystem, and percent antifungal activity relative to the untreated check is calculated.
Conidia of the fungus from cryogenic storage are directly mixed into nutrient broth (PDB—potato dextrose broth). After placing a (DMSO) solution of test compound into a microtiter plate (96-well format), the nutrient broth containing the fungal spores is added.
The following compounds at 20 ppm in the applied formulation give at least 80% disease control in this test when compared to untreated control under the same conditions, which show extensive disease development.

[3] = tested on: Puccinia recondita f. Sp. Tritici; assay: Puccinia recondita f. sp. tritici / wheat / leaf disc curative (brown rust); assay type: in vivo; conditions: foliar, 24 h, 200 ppm in the applied formulation, wheat leaf segments cv. Kanzler, curative (applied 1 day after inoculation), compared to untreated, read-out: disease control
Experimental: (§1) Leaf disks or leaf segments of various plant species are cut from plants grown in a greenhouse. The cut leaf disks or segments are placed in multiwell plates (24-well format) onto water agar. The leaf disks are sprayed with a test solution before (preventative) or after (curative) inoculation. Compounds to be tested are prepared as DMSO solutions (max. 10 mg/ml) which are diluted to the appropriate concentration with 0.025% Tween20 just before spraying. The inoculated leaf disks or segments are incubated under defined conditions (temperature, relative humidity, light, etc.) according to the respective test system. A single evaluation of disease level is carried out 3 to 14 days after inoculation, depending on the pathosystem. Percent disease control relative to the untreated check leaf disks or segments is then calculated.
Wheat leaf segments cv. Kanzler are placed on agar in multiwell plates (24-well format). The leaf segments are then inoculated with a spore suspension of the fungus. Plates were stored in darkness at 19° C. and 75% relative humidity. The formulated test compound diluted in water was applied 1 day after inoculation. The leaf segments were incubated at 19° C. and 75% relative humidity under a light regime of 12 hours light/12 hours darkness in a climate cabinet and the activity of a compound was assessed as percent disease control compared to untreated when an appropriate level of disease damage appears in untreated check leaf segments (6 to 8 days after application).
(§2) The following compounds at 200 ppm in the applied formulation give at least 80% disease control in this test when compared to untreated control leaf disks under the same conditions, which show extensive disease development.

Phakopsora pachyrhizi = Phakopsora pachyrhizi / soybean / leaf disc preventative (Asian soybean rust); assay type: in vivo; conditions: foliar, 200 ppm in the applied formulation, soybean leaf disks, compared to untreated, read-out: disease control
Experimental: as §1
Soybean leaf disks are placed on water agar in multiwell plates (24-well format) and sprayed with the formulated test compound diluted in water. One day after application leaf discs are inoculated by spraying a spore suspension on the lower leaf surface. After an incubation period in a climate cabinet of 24-36 hours in darkness at 20° C. and 75% rh leaf disc are kept at 20° C. with 12 h light/day and 75% rh. The activity of a compound is assessed as percent disease control compared to untreated when an appropriate level of disease damage appears in untreated check leaf disks (12 to 14 days after application).
as §2

CCCC(C)(C)C(=O)NCc1ccc(-c2noc(C(F)(F)F)n2)cc1 [Compound 1.4, 2,2-dimethyl-N-[[4-[5-(trifluoromethyl)-1,2,4-oxadiazol-3-yl]phenyl]methyl]pentanamide]
≥ 80%: pest or weed control at 200 ppm [1] | inhibition of growth at 20 ppm [2] | pest or weed control at 200 ppm [3] | pest or weed control at 200 ppm (Phakopsora pachyrhizi)

CC(C)C(=O)NCc1ccc(-c2noc(C(F)(F)F)n2)cc1 [Compound 1.6, 2-methyl-N-[[4-[5-(trifluoromethyl)-1,2,4-oxadiazol-3-yl]phenyl]methyl]propanamide]
≥ 80%: pest or weed control at 200 ppm [1] | inhibition of growth at 20 ppm [2] | pest or weed control at 200 ppm [3] | pest or weed control at 200 ppm (Phakopsora pachyrhizi)

C=CCCC(=O)NCc1ccc(-c2noc(C(F)(F)F)n2)cc1 [Compound 1.7, N-[[4-[5-(trifluoromethyl)-1,2,4-oxadiazol-3-yl]phenyl]methyl]pent-4-enamide]
≥ 80%: pest or weed control at 200 ppm [1] | inhibition of growth at 20 ppm [2] | pest or weed control at 200 ppm [3] | pest or weed control at 200 ppm (Phakopsora pachyrhizi)

CCCCCC(=O)NCc1ccc(-c2noc(C(F)(F)F)n2)cc1 [Compound 1.8, N-[[4-[5-(trifluoromethyl)-1,2,4-oxadiazol-3-yl]phenyl]methyl]hexanamide]
≥ 80%: pest or weed control at 200 ppm [1] | inhibition of growth at 20 ppm [2] | pest or weed control at 200 ppm [3] | pest or weed control at 200 ppm (Phakopsora pachyrhizi)

CC(=O)CC(C)C(=O)NCc1ccc(-c2noc(C(F)(F)F)n2)cc1 (centres unmarked) [Compound 1.9, 2-methyl-4-oxo-N-[[4-[5-(trifluoromethyl)-1,2,4-oxadiazol-3-yl]phenyl]methyl]pentanamide]
≥ 80%: pest or weed control at 200 ppm [1] | inhibition of growth at 20 ppm [2] | pest or weed control at 200 ppm [3] | pest or weed control at 200 ppm (Phakopsora pachyrhizi)

CCCC(=O)NCc1ccc(-c2noc(C(F)(F)F)n2)cc1 [Compound 1.10, N-[[4-[5-(trifluoromethyl)-1,2,4-oxadiazol-3-yl]phenyl]methyl]butanamide]
≥ 80%: pest or weed control at 200 ppm [1] | inhibition of growth at 20 ppm [2] | pest or weed control at 200 ppm [3] | pest or weed control at 200 ppm (Phakopsora pachyrhizi)

CC(C)CC(=O)NCc1ccc(-c2noc(C(F)(F)F)n2)cc1 [Compound 1.12, 3-methyl-N-[[4-[5-(trifluoromethyl)-1,2,4-oxadiazol-3-yl]phenyl]methyl]butanamide]
≥ 80%: pest or weed control at 200 ppm [1] | inhibition of growth at 20 ppm [2] | pest or weed control at 200 ppm [3] | pest or weed control at 200 ppm (Phakopsora pachyrhizi)

CC=CCC(=O)NCc1ccc(-c2noc(C(F)(F)F)n2)cc1 [Compound 1.14, N-[[4-[5-(trifluoromethyl)-1,2,4-oxadiazol-3-yl]phenyl]methyl]pent-3-enamide]
≥ 80%: pest or weed control at 200 ppm [1] | inhibition of growth at 20 ppm [2] | pest or weed control at 200 ppm [3] | pest or weed control at 200 ppm (Phakopsora pachyrhizi)

CC(C)(C)CC(=O)NCc1ccc(-c2noc(C(F)(F)F)n2)cc1 [Compound 1.15, 3,3-dimethyl-N-[[4-[5-(trifluoromethyl)-1,2,4-oxadiazol-3-yl]phenyl]methyl]butanamide]
≥ 80%: pest or weed control at 200 ppm [1] | inhibition of growth at 20 ppm [2] | pest or weed control at 200 ppm [3] | pest or weed control at 200 ppm (Phakopsora pachyrhizi)

CCC(C)C(=O)NCc1ccc(-c2noc(C(F)(F)F)n2)cc1 (centres unmarked) [Compound 1.17, 2-methyl-N-[[4-[5-(trifluoromethyl)-1,2,4-oxadiazol-3-yl]phenyl]methyl]butanamide]
≥ 80%: pest or weed control at 200 ppm [1] | inhibition of growth at 20 ppm [2] | pest or weed control at 200 ppm [3] | pest or weed control at 200 ppm (Phakopsora pachyrhizi)

CCC(C)(CC)C(=O)NCc1ccc(-c2noc(C(F)(F)F)n2)cc1 [Compound 1.20, 2-ethyl-2-methyl-N-[[4-[5-(trifluoromethyl)-1,2,4-oxadiazol-3-yl]phenyl]methyl]butanamide]
≥ 80%: pest or weed control at 200 ppm [1] | inhibition of growth at 20 ppm [2] | pest or weed control at 200 ppm [3] | pest or weed control at 200 ppm (Phakopsora pachyrhizi)

COCCCC(=O)NCc1ccc(-c2noc(C(F)(F)F)n2)cc1 [Compound 1.21, 4-methoxy-N-[[4-[5-(trifluoromethyl)-1,2,4-oxadiazol-3-yl]phenyl]methyl]butanamide]
≥ 80%: pest or weed control at 200 ppm [1] | inhibition of growth at 20 ppm [2] | pest or weed control at 200 ppm [3] | pest or weed control at 200 ppm (Phakopsora pachyrhizi)

CCC(C)C(=O)NCc1ccc(-c2noc(C(F)(F)F)n2)c(F)c1F (centres unmarked) [Compound 1.59, N-[[2,3-difluoro-4-[5-(trifluoromethyl)-1,2,4-oxadiazol-3-yl]phenyl]methyl]-2-methyl-butanamide]
≥ 80%: pest or weed control at 200 ppm [1] | inhibition of growth at 20 ppm [2] | pest or weed control at 200 ppm (Phakopsora pachyrhizi)

CC(=O)NCC(=O)NCCc1ccc(-c2noc(C(F)(F)F)n2)cc1 [Compound 1.82, 2-acetamido-N-[2-[4-[5-(trifluoromethyl)-1,2,4-oxadiazol-3-yl]phenyl]ethyl]acetamide]
≥ 80%: pest or weed control at 200 ppm (Phakopsora pachyrhizi)

CC(CO)(CCl)C(=O)NCCc1ccc(-c2noc(C(F)(F)F)n2)cc1 (centres unmarked) [Compound 1.88, 2-(chloromethyl)-3-hydroxy-2-methyl-N-[2-[4-[5-(trifluoromethyl)-1,2,4-oxadiazol-3-yl]phenyl]ethyl]propanamide]
≥ 80%: inhibition of growth at 20 ppm [2] | pest or weed control at 200 ppm (Phakopsora pachyrhizi)

O=C(CC(F)(F)F)NCCc1ccc(-c2noc(C(F)(F)F)n2)cc1 [Compound 1.91, 3,3,3-trifluoro-N-[2-[4-[5-(trifluoromethyl)-1,2,4-oxadiazol-3-yl]phenyl]ethyl]propanamide]
≥ 80%: pest or weed control at 200 ppm [1] | inhibition of growth at 20 ppm [2] | pest or weed control at 200 ppm (Phakopsora pachyrhizi)

CC#CCOC(=O)NCc1ccc(-c2noc(C(F)(F)F)n2)cc1 [Compound 2.7, but-2-ynyl N-[[4-[5-(trifluoromethyl)-1,2,4-oxadiazol-3-yl]phenyl]methyl]carbamate]
≥ 80%: pest or weed control at 200 ppm [1] | pest or weed control at 200 ppm (Phakopsora pachyrhizi)

CCC(C)NC(=O)NCc1ccc(-c2noc(C(F)(F)F)n2)cc1 (centres unmarked) [Compound 3.7, 1-sec-butyl-3-[[4-[5-(trifluoromethyl)-1,2,4-oxadiazol-3-yl]phenyl]methyl]urea]
≥ 80%: pest or weed control at 200 ppm [1] | inhibition of growth at 20 ppm [2] | pest or weed control at 200 ppm (Phakopsora pachyrhizi)

CC(C)(C)NC(=O)NCc1ccc(-c2noc(C(F)(F)F)n2)cc1 [Compound 3.15, 1-tert-butyl-3-[[4-[5-(trifluoromethyl)-1,2,4-oxadiazol-3-yl]phenyl]methyl]urea]
≥ 80%: pest or weed control at 200 ppm [1] | inhibition of growth at 20 ppm [2] | pest or weed control at 200 ppm [3]
